Bounds are passed on as bounds.

The text below walks through data of publication PMC10610214 (Pharmaceuticals, 2023).

The subject of data set [1] is SY5Y cells. As to the kind of experiment: H2O2-induced intracellular ROS in SY5Y cells (DCFH-DA). The data set is classed as cell-based. The conditions noted are these: 100 μM, vs untreated control 100, H2O2 group 151.76. The method, then: A 2’, 7’-dichlorofluorescein diacetate (DCFH-DA, Sigma Aldrich) probe was applied to determine intracellular ROS production. It can penetrate cells and be rapidly oxidized by intracellular ROS to highly fluorescent 2′,7′-dichlorofluorescein (DCF). Intracellular fluorescence intensity is proportional to intracellular ROS levels. PC12 cells or SY5Y cells were seeded into a black 96-well plate at a density of 1.0 × 10^4 cells per well. After the cells were incubated overnight, the old medium was discarded. PC12 cells or SY5Y cells were cultured in a medium containing test compound 4h with or without various concentrations (1, 7.5, 15, 30, and 50 μM) for 6 h. […] Then, they were washed again with PBS, then DCFH-DA […] probe was added to each well and incubated at 37 °C for 1 h. After the cells were washed 3 times, the fluorescence intensity was measured in a Synergy HTX fluorescence microplate reader (λex = 485 nm, λem = 528 nm).

The subject of data set [2] is PC12 cells. Kind of data set: Cytotoxicity in PC12 cells (MTT). The format is cell-based. The procedure: The cytotoxicity and neuroprotective effects of the compounds on PC12 cells were evaluated by MTT assay. PC12 cells were seeded into a 96-well plate at a density of 5.0 × 10^3 cells per well. After the cells were incubated overnight, the old medium was discarded. The cells were incubated for another 24 h with fresh medium containing compounds at a concentration of 30 or 50 μM. A total of 20 μL of MTT solution (5 mg/mL, Sigma-Aldrich, Shanghai, China) was then added per well, and the cells were incubated for an additional 4 h. Afterwards, the supernatant was removed and 150 μL of DMSO was added to solubilize formazan crystals. The 96-well plate was placed on the shaker for 10–15 min, and then the absorbance at 492 nm was measured by a microplate reader.

Data set [3] deals with H2O2-induced PC12 cells. Kind of data set: Neuroprotection against H2O2-induced PC12 cell injury (MTT). The format is cell-based. The conditions noted are these: H2O2 250 μM, mean ± SEM. The method, then: Neuroprotection assay is similar to cytotoxicity. Oxidative cellular damage caused by H2O2 has become one of the important methods to study oxidative damage in neural cells. PC12 cells were seeded into a 96-well plate at a density of 5.0 × 10^3 cells per well. After the cells were incubated overnight, the old medium was discarded. […] After incubating overnight, 20 μL of MTT solution (5 mg/mL, Sigma-Aldrich) was added per well, and the cells were incubated for an additional 4 h. Afterwards, the supernatant was removed and 150 μL of DMSO was added. The 96-well plate was placed on the shaker for 10–15 min, and then the absorbance at 492 nm was measured by a microplate reader.

The target of data set [4] is T1, BuChE (from equine serum) (Equus caballus, UniProt P81908).
T1 construct: BuChE (from equine serum); purchased Sigma Chemical Company (St. Louis, MO, USA); host or cells: equine serum
Kind of data set: biochemical. Conditions: mean ± SD of three experiments, read-out: BuChE Inhibition (IC50). The procedure: (§1) The ChE inhibitory activity of the test compounds was determined using the modified Ellman’s method. The compounds were dissolved in DMSO (10 mmol/L) and then diluted with PB (phosphate buffer) solution to attain a range of final concentrations. […] Briefly, 100 μL of different concentrations of the test or standard compounds and 100 μL of AChE/BuChE (0.5 U/mL) were added into 48-well plates and then co-incubated at 37 °C for 30 min. […] All concentrations mentioned are final.

For data set [5], the target named is T2, AChE (from electric eel) (Electrophorus electricus, UniProt O42275).
T2 construct: AChE (from electric eel); purchased Sigma Chemical Company (St. Louis, MO, USA)
As to the kind of experiment: biochemical. The conditions noted are these: for IC50: AChE from electric eel, mean ± SD of three experiments, read-out: AChE Inhibition (IC50); for Selective Index, IC50 (BChE)/IC50 (AChE): AChE selectivity index. The procedure:
as §1

The test system of data set [6] is adjuvant-induced arthritis (AIA) rats. Also noted: method as in PMID 36450214. Conditions: cited from earlier work.
Data set [7] is described as follows: in vitro. The data set is classed as in vitro ADME, SD rats. The conditions noted are these: SD rat liver microsomes. The method, then: The incubation was terminated at different time points by adding 0.5 mL of ice-cold CH3CN. A parallel incubation was performed in the absence of a NADPH-regenerating system with microsomes as the negative control, and the reactions were terminated after the corresponding time incubation. After centrifugation with 12,500 rpm at 4 °C for 10 min, the supernatant was directly analyzed by the HPLC UV systems (Agilent HPLC 1200 instrument). Three independent experiments were performed in triplicate.
(Liver microsomes are vesicles of endoplasmic reticulum, rich in cytochrome P450 enzymes.)

The nature of data set [8]: DPPH radical scavenging. The format is physicochemical. The conditions noted are these: vs no-compound group. The method, then: DPPH is a commercially available stable organic nitrogen radical with maximum UV absorption at 515 nm. After reduction, the color of the solution fades (absorbance decreases). Therefore, this method was used to evaluate the antioxidant capacity of the compounds. In short, 50 μL of DPPH (140 μM) and 50 μL of different concentrations (10, 100, and 1000 μM) of compound 4h were added together in a 96-well plate and then incubated in the dark at 37 °C for 2 h. The absorbance was measured at 515 nm through the multifunctional microplate reader. The scavenging rate (SR) of DPPH radicals was calculated by the following formula: SR = (1 − Ac/A0) × 100%, where “Ac” is the absorbance of DPPH and the compound solution incubating, and “A0” is the absorbance of the DPPH radical-ethanol solution alone. The experimental results are expressed as the average of three tests.
A general note: Loss of DPPH colour is used to gauge radical scavenging.

Data set [9] concerns the target Aβ1-42 (Homo sapiens, UniProt P05067). Kind of data set: Self-induced Aβ1-42 aggregation, thioflavin T fluorescence. The data set is classed as biochemical. The arrangement: final concentrations of 20 μM of Aβ1-42 and 100 μM of test compound; purchased Beyotime Institute of Biotechnology. The conditions noted are these: read-out: Inhibition of Self-Induced Aβ Aggregation (%). The method, then:
The inhibitory effect of compounds on Aβ42 was determined by Thioflavin T (ThT) fluorescence assay. In short, the dilution of Aβ42 solution (Beyotime Biotechnology, Hang Zhou, China) and test compounds was carried out with phosphate buffer (50 mM, pH 7.4) to obtain final concentrations of 20 μM of Aβ1-42 and 100 μM of test compound, such as curcumin (20 μM). The mixture was incubated in 96-well plates at room temperature for 48 h in the dark. When the incubation was complete, the samples were diluted to 200 µL (final volume) with glycine–NaOH buffer (50 mM, pH 8.0) containing 5 μM ThT.

Data set [10] deals with T3, BuChE (Equus caballus, UniProt P81908).
T3 construct: BuChE (from equine serum); purchased Sigma Chemical Company (St. Louis, MO, USA); host or cells: equine serum
As to the kind of experiment: Reversibility of BuChE inhibition, dilution method. Conditions: control 100. The data set is classed as biochemical. The procedure:
The activities of the diluted residual enzymes were measured by Ellman’s modified method.
Reversibility studies were performed using a modified Ellman’s dilution method to measure the activity of the diluted residual enzyme. The AChE/BuChE (0.5 U/mL), ATCI/BTCI (0.01 M) and DTNB (0.01 M) were diluted with phosphate buffer pH = 7.4. […] At the end of incubation, 20 μL of DTNB solution was added to them. […] All the measured results are expressed as the mean ± SEM of the three independent experiments.

T2 sequence (O42275 24-633): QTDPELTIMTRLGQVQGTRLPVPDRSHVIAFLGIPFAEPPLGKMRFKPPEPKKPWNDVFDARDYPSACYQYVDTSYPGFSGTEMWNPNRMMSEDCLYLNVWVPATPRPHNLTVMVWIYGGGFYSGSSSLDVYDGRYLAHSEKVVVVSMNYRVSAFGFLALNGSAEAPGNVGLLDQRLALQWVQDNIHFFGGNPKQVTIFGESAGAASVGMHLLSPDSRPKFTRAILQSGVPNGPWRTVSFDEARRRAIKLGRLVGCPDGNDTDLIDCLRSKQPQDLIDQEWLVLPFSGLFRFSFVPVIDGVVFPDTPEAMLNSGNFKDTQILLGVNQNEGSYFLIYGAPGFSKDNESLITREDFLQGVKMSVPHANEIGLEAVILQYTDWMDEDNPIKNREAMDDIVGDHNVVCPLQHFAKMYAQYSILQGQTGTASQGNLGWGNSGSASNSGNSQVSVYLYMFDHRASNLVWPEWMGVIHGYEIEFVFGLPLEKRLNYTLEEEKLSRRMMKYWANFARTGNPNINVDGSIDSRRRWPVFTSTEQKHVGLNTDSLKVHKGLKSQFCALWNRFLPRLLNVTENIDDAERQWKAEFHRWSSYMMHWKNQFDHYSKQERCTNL
T1 sequence (P81908 whole entry): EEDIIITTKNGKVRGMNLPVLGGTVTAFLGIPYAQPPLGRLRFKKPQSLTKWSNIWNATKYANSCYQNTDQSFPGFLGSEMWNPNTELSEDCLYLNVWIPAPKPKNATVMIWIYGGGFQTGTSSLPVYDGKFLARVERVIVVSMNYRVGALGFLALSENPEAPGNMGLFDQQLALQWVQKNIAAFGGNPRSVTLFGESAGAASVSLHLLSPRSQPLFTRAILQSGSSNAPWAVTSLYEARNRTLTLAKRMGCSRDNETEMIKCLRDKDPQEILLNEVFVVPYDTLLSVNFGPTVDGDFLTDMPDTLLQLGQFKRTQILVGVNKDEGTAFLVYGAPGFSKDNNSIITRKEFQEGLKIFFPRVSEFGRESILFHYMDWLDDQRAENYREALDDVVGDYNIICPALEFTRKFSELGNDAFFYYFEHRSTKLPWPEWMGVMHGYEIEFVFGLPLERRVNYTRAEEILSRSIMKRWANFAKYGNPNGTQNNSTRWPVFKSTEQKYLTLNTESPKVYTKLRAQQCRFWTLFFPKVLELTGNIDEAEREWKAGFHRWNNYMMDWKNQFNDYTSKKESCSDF
Aβ1-42, sequence (P05067 672-713 limits assumed): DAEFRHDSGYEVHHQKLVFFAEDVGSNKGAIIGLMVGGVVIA
T3 sequence (P81908 whole entry): as the sequence (P81908 whole entry) above

Turning to `Cc1c(C)c2c(c(C)c1O)CCC(C)(C(=O)O)O2` (stereo not shown) [Trolox], the “ROS in SY5Y cells (%)” value in data set [1] is 126.06 ± 2.68%.

In general, IC50 refers to the point on the concentration scale where inhibition reaches its midpoint. Take `COc1ccc(S(=O)(=O)Nc2ccc3nc4n(c(=O)c3c2)-c2ccccc2C4=O)cc1` [8j]: the “Cell Viability (% of Control)” value was 99.9 ± 1.5 % of Control in [2] (compound 30 μM) and 98.9 ± 2.1 % of Control in data set [2] (compound 50 μM). Further, the “H2O2-Induced PC12 Cell Viability (% of Control)” value in data set [3] (compound 10 μM) is 38.02 ± 3.1 % of Control; in [3] (compound 30 μM), 47.36 ± 6.1 % of Control. The IC50 was 10.2 ± 2.41 µM in data set [4] and above 50 µM in data set [5]. Moreover, the “Anti-inflammatory activity in the AIA model” value in data set [6] is reported as “exhibited good anti-inflammatory activity in the AIA model”.

Turning to `C[C@]12CC[C@H]3[C@@H](CCC4=CC(=O)CC[C@@]43C)[C@@H]1CC[C@@H]2O` [Testosterone, reference compound], in [7], the K worked out at 0.2593 ± 0.04409 min⁻¹ and the T1/2 is 2.4 ± 0.5 min.

Take `O=C1O[C@H]([C@@H](O)CO)C(O)=C1O` [AA, Ascorbic acid, reference compound]: the entries for the “Concentration of DPPH (%)” value in [8] (10 μM compound), in data set [8] (100 μM compound) and in data set [8] (1000 μM compound) were 77.43 ± 2.76%, 58.10 ± 3.42% and 24.2 ± 1.85%, respectively.

Broadly, the inhibition is the drop in the measured response relative to a control, in per cent. Consider `COc1cc2c(cc1OC)C(=O)C(CC1CCN(Cc3ccccc3)CC1)C2` (stereo not shown) [Donepezil, reference compound], for which, in data set [9], the inhibition at 100 µM worked out at 41.2 ± 1.87%. For the same molecule, the figures for the “BuChE activity after dilution (reversibility)” value in data set [10] (final inhibitor 0.1 × IC50 after 100-fold dilution) and in [10] (final inhibitor 1 × IC50 after 100-fold dilution) were 94.1 ± 0.61 and 89.4 ± 1.49, respectively.

For `COc1cc(/C=C/C(=O)CC(=O)/C=C/c2ccc(O)c(OC)c2)ccc1O` [Curcumin], the inhibition at 20 µM in [9] (curcumin 20 μM (text b32), ThT, 48 h) is 55.4 ± 2.31%.

As for `O=C1c2cc(NS(=O)(=O)c3cccc(F)c3)ccc2-n2c1nc1ccccc1c2=O` [4g], the “Cell Viability (% of Control)” value was 100 ± 1.3 % of Control in data set [2] (compound 30 μM) and 99.7 ± 0.8 % of Control in data set [2] (compound 50 μM). The “H2O2-Induced PC12 Cell Viability (% of Control)” value in data set [3] (compound 10 μM) is reported as 59.88 ± 0.9 % of Control; in data set [3] (compound 30 μM) it was 68.83 ± 2.7 % of Control. In addition, the concentration for half-maximal inhibition (IC50) was 21.6 ± 1.79 µM in data set [4] and 3.21 ± 0.39 µM in [5]. For the same molecule, in data set [5], the “Selective Index, IC50 (BChE)/IC50 (AChE)” value was determined as 6.7.

As for `O=C1c2ccccc2-n2c1nc1ccc(NS(=O)(=O)c3cccc(F)c3)cc1c2=O` [8g], the “Cell Viability (% of Control)” value in data set [2] (compound 30 μM) is 99.6 ± 1.2 % of Control; in data set [2] (compound 50 μM), 99.5 ± 2.7 % of Control. The “H2O2-Induced PC12 Cell Viability (% of Control)” value was 44.37 ± 0.5 % of Control in data set [3] (compound 10 μM) and 52.28 ± 2.3 % of Control in data set [3] (compound 30 μM). Moreover, the IC50 in data set [4] and in data set [5] was above 50 µM throughout.

As for `O=C1c2cc(NS(=O)(=O)c3ccc(F)cc3)ccc2-n2c1nc1ccccc1c2=O` [4f], the entries for the “Cell Viability (% of Control)” value in [2] (compound 30 μM) and in data set [2] (compound 50 μM) were 99.4 ± 1.6 % of Control and 98.7 ± 1.1 % of Control, respectively. Moreover, the figures for the “H2O2-Induced PC12 Cell Viability (% of Control)” value in data set [3] (compound 10 μM) and in data set [3] (compound 30 μM) were 45.23 ± 2.2 % of Control and 55.26 ± 0.5 % of Control, respectively. For the same molecule, the IC50 is 11.9 ± 1.86 µM in [4] and 0.56 ± 0.07 µM in [5]. Also, the “Selective Index, IC50 (BChE)/IC50 (AChE)” value in data set [5] turned out to be 21.2.

For `O=C1c2ccccc2-n2c1nc1ccc(NS(=O)(=O)c3ccccc3OC(F)(F)F)cc1c2=O` [8n], the figures for the “Cell Viability (% of Control)” value in data set [2] (compound 30 μM) and in [2] (compound 50 μM) were 99.2 ± 1.9 % of Control and 98.3 ± 2.7 % of Control, respectively. For the same molecule, the “H2O2-Induced PC12 Cell Viability (% of Control)” value in data set [3] (compound 10 μM) is on record as 38.94 ± 1.5 % of Control; in [3] (compound 30 μM), 49.96 ± 0.8 % of Control. The IC50 in [4] was above 50 µM; in [5], 42 ± 1.7 µM.

Take `CC(C)c1cc(C(C)C)c(S(=O)(=O)Nc2ccc3c(c2)C(=O)c2nc4ccccc4c(=O)n2-3)c(C(C)C)c1` [4d]: the “Cell Viability (% of Control)” value is 99.4 ± 2.4 % of Control in data set [2] (compound 30 μM) and 97.3 ± 3.6 % of Control in [2] (compound 50 μM). Besides, the “H2O2-Induced PC12 Cell Viability (% of Control)” value in data set [3] (compound 10 μM) is 42.53 ± 2.7 % of Control; in data set [3] (compound 30 μM), 50.1 ± 0.8 % of Control. In addition, the IC50 in data set [4] and in [5] was above 50 µM each time.
